Experimental data: patent US12528792B2, “Sulfonamide compounds and the use thereof in the treatment of cancer” (TROBIO THERAPEUTICS PTY LTD, priority 2019, dated 2026)
pIC50: −log10 of the molar value. Read-outs that look alike come from different tables or passages of the source.

Columns and labels:
Type in all cases: cell-based
[1] = system: SK-N-SH neuroblastoma cells; test: Cytotoxicity assay, MTS viability; conditions: Homo sapiens, 72 hours
Method: The ability of compounds of the disclosure to inhibit the proliferation of SK—N—SH neuroblastoma cells was assessed. The SK—N—SH cell line was maintained as a monolayer in Dulbeccos Modified Eagles medium (DMEM) supplemented with 10% foetal bovine serum (FBS) and grown at 37° C. in a humidified atmosphere with 5% CO2. For the cytotoxicity assay, SK—N—SH cells were seeded at a density of 2×10^3 cells per well in 96-well plates. The cells were treated with serial dilutions of the test compounds (1:2 starting concentration 100 µM) and viability measured after 72 hours using a standard MTS assay. Cell viability was normalised to control (vehicle alone) and dose response curves and EC50 values (Table 3) were determined using Graph Pad Prism 6.

[2] = system: A2780 ovarian cancer cells; test: In vitro growth inhibition assay, Alamar Blue, single agent IC50; conditions: Homo sapiens
Method: (§1) In vitro growth inhibition assays were performed as technical triplicate in two independent experiments and cell viability was assessed by Alamar Blue assay readout. Briefly, cells in logarithmic phase growth were seeded in 384-well plates in a 50 μL/well assay volume. Cells were seeded at 1,200 cells/well using a Multidrop 384 (Thermo Scientific) and allowed to adhere at 37° C. with 5% CO2, in a humidified atmosphere (LiCONIC incubator). After 24 hours incubation, test compounds, positive control (20 μM Thonzonium bromide, 100% kill) and vehicle only (0.4% DMSO) were added into wells of each assay plate using a Tecan HP D300 Digital Dispenser in technical triplicate under minimum light. Following 72 hours drug exposure, metabolic activity was detected by addition of 10% (v/v) Alamar Blue reagent to each assay well using a Multidrop Cambi (Thermo Scientific) and determined by measurement of fluorescence intensity (excitation 555 nm, emission 585 nm) using an EnSpire (Perkin Elmer) plate reader. Readings were performed at 0 hour (background) and after 6 hours alamar blue incubation at 37° C.
Each drug was tested as a 10-point concentration series with two-fold serial dilutions of each drug. The concentration series for compounds 6 and 8 was 100, 50, 25, 12.5, 6.25, 3.125, 1.563, 0.781, 0.391 and 0.195 μM and for compounds 24, 43 and 48 was 50, 25, 12.5, 6.25, 3.125, 1.563, 0.781, 0.391, 0.195 and 0.098 μM for the two independent experiments. The concentration series for vinorelbine and paclitaxel was 100, 50, 25, 12.5, 6.25, 3.125, 1.5625, 0.781, 0.391 and 0.195 nM. Thonzonium bromide (20 μM) and 0.4% DMSO were used as positive and vehicle controls, respectively. The IC50 value was calculated by derivation of the best-fit line using a sigmoidal dose response model (Activity Base Software Suite, IDES).
Activity Base software suite (IDES, version 8.3.0.175) was used for data analysis. Cell survival is expressed as a percentage of viable cells. IC50 concentrations were calculated by derivation of the best-fit line using a sigmoidal dose response model with technical triplicate data points.

[3] = system: A549 (NSCLC) cells; test: Anti-proliferative activity, Cell-Titre luminescent viability assay; conditions: Homo sapiens, 72 h exposure, Cell-Titre luminescent reagent
Summary of the method: (§2)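 Cells attached 24 h at 37° C., 5% CO2, then treated 72 h with compound at 0.3–100 μM or 0.1–30 μM. Viability read by Cell-Titre luminescence after 30 min reagent exposure, normalized to vehicle; EC50 from variable-slope sigmoidal nonlinear regression.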

[4] = system: A2780 (ovarian) cells; test: as above; conditions: Homo sapiens, 72 h exposure, Cell-Titre luminescent reagent
Summary of the method: as §2

[5] = system: A2780 ovarian cancer cells; test: Drug combination screen, 6x6 dose matrix, Bliss-independence synergy; parameters: key to Max. Synergy, Vinorelbine: Bliss synergy score; 0 = no synergy, negative = antagonism; highest in matrix; key to Total Synergy, Vinorelbine: sum of Bliss synergy scores across the dose matrix; conditions: 72 h (26*: 96-well plate format); for Max. Synergy, Paclitaxel / Total Synergy, Paclitaxel: combination with paclitaxel; for Max. Synergy, Paclitaxel / Max. Synergy, Vinorelbine: Bliss score; for Total Synergy, Paclitaxel / Total Synergy, Vinorelbine: sum of Bliss scores of the matrix; for Max. Synergy, Vinorelbine / Total Synergy, Vinorelbine: combination with vinorelbine
Method: as §1
The two drugs in each combination matrix were dispensed using a Tecan HP D300 Digital Dispenser. Assays were performed in triplicate for each drug combination (test compound/vinorelbine and test compound/paclitaxel combinations). Synergistic drug interactions were calculated from the averaged cell viability data using the methodology described below.
Synergistic drug interactions were determined for each pa1rw1se drug combination by applying the Bliss-independence model that assumes independence of drug mechanisms. Prior to the analysis, percent cell viability (CV) for combination data were converted to fractional cell growth inhibition (GI) by the formula: […]
The Bliss additivism model was used to calculate a predicted combined response C to two single agents with responses A and B (using GI values), as follows:
The final score for any combination was reported as the difference between the value predicted by the additive model and the experimentally observed value, normalised to 100. Using GI values the maximum possible synergy score is 100, with 0 indicating no synergy and negative indicating possible antagonism. Scores were also reported as a “Max synergy” score, which is the highest individual synergy score for each combination matrix, and a “Total synergy” score, which was obtained by summation of each individual synergy score for the matrix.
The single agent IC50 values for the test compounds and their synergy scores in combination with vinorelbine and paclitaxel are presented in Table 4. The data is listed as IC50 mean from technical triplicates for two independent experiments. The averaged IC50 concentrations for the single agents from both runs were then used to generate the 6×6 dose matrices in the synergy experiment. Synergy scores for each drug combination were calculated by the Bliss-independence model. The maximum synergy and total synergy scores for each combination in A2780 cells are listed.

[6] = system: Caco-2 (colorectal) cells; test: Anti-proliferative activity, Cell-Titre luminescent viability assay; conditions: Homo sapiens, 72 h exposure, Cell-Titre luminescent reagent
Summary of the method: as §2

[7] = system: MIA PaCa-2 (pancreatic) cells; test: as above; conditions: Homo sapiens, 72 h exposure, Cell-Titre luminescent reagent
Summary of the method: as §2

[8] = system: PC3 (prostate) cells; test: as above; conditions: 72 h exposure, Cell-Titre luminescent reagent
Summary of the method: as §2

[9] = target: T1, Tpm3.1-containing actin microfilaments in SK-N-SH neuroblastoma cells (Homo sapiens, UniProt P06753); test: Imaging and quantitation of Tpm3.1 mCherry and 488-Atto-Phalloidin actin filaments; conditions: 24 hours post-treatment, two concentrations, FIG. 2 and FIG. 3
T1 construct: expressed in transfected cells; host or cells: SK-N-SH neuroblastoma cells
Method: The ability of compounds 24, 26 and 143 to disrupt Tpm3.1-containing actin microfilaments was investigated in SK—N—SH neuroblastoma cells that express Tpm3.1 labelled with the mCherry fluorophore. Cells were seeded at 3×10^4 cells per well in a volume of 1000 μL complete media onto a 12 well plate containing 13 mm coverslips and left to plate down for 24 hours prior to treatment. Cells were then treated with DMSO and two concentrations of the test compounds. 24 hours post-treatment, cells were fixed with 16% paraformaldehyde (PBS) and stained with 488-Atto-Phalloidin to visualise the actin filament bundles. Single plane images were obtained using the Olympus IX83 epi-fluorescence microscope. Ten fields of view were collected for both Tpm3.1 mCherry fluorophore (FIG. 2) and 488-Atto-Phalloidin (FIG. 3) with each treatment condition.
Quantitation of either Tpm3.1 mCherry filaments or 488-Atto-Phalloidin filaments was performed using ImageJ 1.52p software (ImageJ, NIH). The mean pixel intensity from a cell was measured by using a line across the entire cell cytoplasmic area above or below the nuclear region. The line was made to cross the filament bundles at a 90° angle for the measurement rather than run along a single filament. A total of n=100 cells were measured from ten fields of view. […]

[10] = 72 h drug exposure, Alamar Blue, 384-well (26*: 96-well plate format), read-out: Single-agent IC50
[11] = single agent, 96-well plate format, read-out: Dose matrix IC50 concentrations

T1 sequence (P06753 1-248 isoform P06753-2): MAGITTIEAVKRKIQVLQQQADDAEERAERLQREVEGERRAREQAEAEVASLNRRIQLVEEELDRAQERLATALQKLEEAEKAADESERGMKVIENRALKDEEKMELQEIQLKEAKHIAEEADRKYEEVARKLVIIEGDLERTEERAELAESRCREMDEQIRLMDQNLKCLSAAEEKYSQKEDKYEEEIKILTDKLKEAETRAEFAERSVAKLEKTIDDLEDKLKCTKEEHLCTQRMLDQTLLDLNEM

pIC50 [2, 10] | pIC50 [3] | pIC50 [4] | pIC50 [2, 11] | pIC50 [6] | pIC50 [7] | pIC50 [8] | SMILES | pIC50 [1] | Max. Synergy, Paclitaxel [5] | Total Synergy, Paclitaxel [5] | Max. Synergy, Vinorelbine [5] | Total Synergy, Vinorelbine [5] | Disruption of Tpm3.1-containing actin microfilaments [9]
4.89 | 4.74 | 5.72 | – | – | – | – | Cc1ccc(NC(=O)c2ccn(S(=O)(=O)c3ccc4[nH]ccc4c3)c2)cc1 [Compound 43, 1-((1H-indol-5-yl)sulfonyl)-N-(p-tolyl)-1H-pyrrole-3-carboxamide] | 4.76 | 12.46 | 3.06 | 10.94 | 73.13 | –
– | – | – | 8.40 | – | – | – | CC(=O)O[C@H]1C(=O)[C@@]2(C)[C@H]([C@H](OC(=O)c3ccccc3)[C@]3(O)C[C@H](OC(=O)[C@H](O)[C@@H](NC(=O)c4ccccc4)c4ccccc4)C(C)=C1C3(C)C)[C@]1(OC(C)=O)CO[C@@H]1C[C@@H]2O [paclitaxel, reference compound] | – | – | – | – | – | –
5.12 | 5.22 | 5.60 | – | 5.07 | 5.09 | 5.21 | CCC(C)c1ccc(NC(=O)c2ccn(S(=O)(=O)c3ccc4[nH]ccc4c3)c2)cc1 (stereo not shown) [Compound 24, 1-((1H-indol-5-yl)sulfonyl)-N-(4-(sec-butyl)phenyl)-1H-pyrrole-3-carboxamide] | 5.13 | 16.56 | 111.86 | 14.27 | 61.75 | disrupt Tpm3.1-containing actin microfilaments in a dose-dependent manner
4.83 | 5.48 | 5.60 | – | – | – | – | O=C(Nc1ccc(F)cc1)c1ccn(S(=O)(=O)c2ccc3[nH]ccc3c2)c1 [Compound 48, 1-((1H-indol-5-yl)sulfonyl)-N-(4-fluorophenyl)-1H-pyrrole-3-carboxamide] | 5.12 | 31.55 | 263.84 | 17.28 | 68.74 | –
4.92 | 4.60 | 4.82 | – | – | – | – | CCC(C)c1ccc(NC(=O)C2CCN(S(=O)(=O)c3ccc4[nH]ccc4c3)CC2)cc1 (stereo not shown) [Compound 6, 1-((1H-indol-5-yl)sulfonyl)-N-(4-(sec-butyl)phenyl)piperidine-4-carboxamide] | 5.25 | 6.78 | −46.04 | 42.36 | 250.66 | –
– | – | – | 8.40 | – | – | – | CCC1=C[C@@H]2CN(C1)Cc1c([nH]c3ccccc13)[C@@](C(=O)OC)(c1cc3c(cc1OC)N(C)[C@H]1[C@@](O)(C(=O)OC)[C@H](OC(C)=O)[C@]4(CC)C=CCN5CC[C@]31[C@@H]54)C2 [vinorelbine, reference compound] | – | – | – | – | – | –
4.84 | 4.92 | 4.93 | – | – | – | – | O=C(Nc1ccc(C(F)(F)F)cc1)C1CCN(S(=O)(=O)c2ccc3[nH]ccc3c2)CC1 [Compound 8, 1-((1H-indol-5-yl)sulfonyl)-N-(4-(trifluoromethyl)phenyl)piperidine-4-carboxamide] | 4.94 | 8.95 | −3.62 | 32.29 | 225.43 | –
